What all share (assay type): in vivo
Experiment [1] has as its system Avena fatua (AVEFA). Put plainly: Example B post-emergence herbicidal activity, glasshouse pot test. The settings on record: 312 h, rate 250 g/ha, evaluated after 13 days, scale 0-100, read-out: Post-emergence activity AVEFA (100=total damage to plant; 0=no damage to plant). On the procedure:
(§1) Seeds of a variety of test species were sown in standard soil in pots. After cultivation for one day (pre-emergence) or after 8 days cultivation (post-emergence) under controlled conditions in a glasshouse (at 24/16° C., day/night; 14 hours light; 65% humidity), the plants were sprayed with an aqueous spray solution derived from the formulation of the technical active ingredient of formula I in acetone/water (50:50) solution containing 0.5% Tween 20 (polyoxyethelyene sorbitan monolaurate, CAS RN 9005-64-5). The test plants were then grown in a glasshouse under controlled conditions in a glasshouse (at 24/16° C., day/night; 14 hours light; 65% humidity) and watered twice daily. After 13 days for pre and post-emergence, the test was evaluated (100=total damage to plant; 0=no damage to plant). Setaria faberi (SETFA), Lolium perenne (LOLPE), Alopecurus myosuroides (ALOMY), Echinochloa crus-galli (ECHCG), and Avena fatua (AVEFA). Post-Emergence Activity

The test system of experiment [2] is Alopecurus myosuroides (ALOMY). The experiment is described as above. The settings on record: 312 h, rate 250 g/ha, evaluated after 13 days, scale 0-100, read-out: Post-emergence activity ALOMY (100=total damage to plant; 0=no damage to plant). On the procedure: as §1
Experiment [3] concerns Lolium perenne (LOLPE). The description is as above. As to conditions: 312 h, rate 250 g/ha, evaluated after 13 days, scale 0-100, read-out: Post-emergence activity LOLPE (100=total damage to plant; 0=no damage to plant). On the procedure:
as §1

The test system of experiment [4] is Echinochloa crus-galli (ECHCG). The experiment is described as above. As to conditions: 312 h, rate 250 g/ha, evaluated after 13 days, scale 0-100, read-out: Post-emergence activity ECHCG (100=total damage to plant; 0=no damage to plant). Here is the method: as §1
For experiment [5], the system named is Avena fatua (AVEFA). As to the kind of experiment: Example B pre-emergence herbicidal activity, glasshouse pot test. As to conditions: 312 h, rate 250 g/ha, evaluated after 13 days, scale 0-100, read-out: Pre-emergence activity AVEFA (100=total damage to plant; 0=no damage to plant). On the procedure: as §1, with “Pre-Emergence” for “Post-Emergence”
Experiment [6] relates to Alopecurus myosuroides (ALOMY). The description is as above. The settings on record: 312 h, rate 250 g/ha, evaluated after 13 days, scale 0-100, read-out: Pre-emergence activity ALOMY (100=total damage to plant; 0=no damage to plant). On the procedure: as §1, with “Pre-Emergence” for “Post-Emergence”
Experiment [7] has as its system Lolium perenne (LOLPE). The experiment is described as above. The settings on record: 312 h, rate 250 g/ha, evaluated after 13 days, scale 0-100, read-out: Pre-emergence activity LOLPE (100=total damage to plant; 0=no damage to plant). Here is the method:
as §1, with “Pre-Emergence” for “Post-Emergence”

Experiment [8] deals with Echinochloa crus-galli (ECHCG). The experiment is described as above. As to conditions: 312 h, rate 250 g/ha, evaluated after 13 days, scale 0-100, read-out: Pre-emergence activity ECHCG (100=total damage to plant; 0=no damage to plant). Here is the method: as §1, with “Pre-Emergence” for “Post-Emergence”

Results on 15 molecules are retold here after patent publication US8741806B2, “Herbicides” (Syngenta Limited, priority 2009, dated 2014).

The structures appear in SMILES notation.

Regarding `CCc1ccc(-c2ccc(Cl)c(F)c2Cl)cc1C1=C(O)CC(C)(C)CC1=O` [Compound T29], the pest or weed control at 250 g/ha in the experiment on Avena fatua (AVEFA) [1] is 30%; in experiment [2], 40%; with Lolium perenne (LOLPE) [3], 100%; in experiment [4], 100%; in the experiment on Avena fatua (AVEFA) [5], 0%; in experiment [6], 40%. For the same molecule, the pest or weed control at 250 g/ha with Lolium perenne (LOLPE) [7] was found to be 70%; in experiment [8], 90%.

On to `CCc1ccc(-c2ccc(Cl)c(OC)c2)cc1C1=C(O)CC(C)(C)CC1=O` [Compound T23], for which the pest or weed control at 250 g/ha in the experiment with Avena fatua (AVEFA) [1] came to 60%; in experiment [2], 90%; with Lolium perenne (LOLPE) [3], 100%; in experiment [4], 100%; in the experiment with Avena fatua (AVEFA) [5] it was 20%; in experiment [6], 40%. Besides, the pest or weed control at 250 g/ha in the experiment on Lolium perenne (LOLPE) [7] came out at 70%; in experiment [8], 90%.

Regarding `CCc1ccc(-c2ccc(Cl)cc2F)cc1C1=C(O)CC(C)(C)CC1=O` [Compound T32], the pest or weed control at 250 g/ha with Avena fatua (AVEFA) [1] turned out to be 70%; in experiment [2], 40%; with Lolium perenne (LOLPE) [3], 100%; in experiment [4] it was 100%; in the experiment with Avena fatua (AVEFA) [5], 30%; in experiment [6] it was 0%. Besides, the pest or weed control at 250 g/ha (with Lolium perenne (LOLPE) [7]; in experiment [8]) was 80% throughout.

`CCc1ccc(-c2ccc(Cl)c(F)c2)cc1C1=C(O)CCCC1=O` [Compound T56]: the pest or weed control at 250 g/ha was 100% with Avena fatua (AVEFA) [1]; 60% in experiment [2]; 100% in the experiment on Lolium perenne (LOLPE) [3]; 100% in experiment [4]; 20% in the experiment on Avena fatua (AVEFA) [5]; 30% in experiment [6]. For the same molecule, the values for the pest or weed control at 250 g/ha (with Lolium perenne (LOLPE) [7]; in experiment [8]) were 90% and 100%, respectively.

With `CCc1ccc(-c2ccc(Cl)nc2Cl)cc1C1=C(O)C(C)(C)CCC1=O` [Compound T12], the pest or weed control at 250 g/ha was determined as 0% in the experiment with Avena fatua (AVEFA) [1]; 0% in experiment [2]; 0% in the experiment on Lolium perenne (LOLPE) [3]; 90% in experiment [4]; 0% in the experiment with Avena fatua (AVEFA) [5]; 0% in experiment [6]. The pest or weed control at 250 g/ha (in the experiment with Lolium perenne (LOLPE) [7]; in experiment [8]) was 0% each time.

Turning to `CCc1ccc(-c2c(F)cc(Cl)cc2F)cc1C1=C(O)CCCC1=O` [Compound T58], the pest or weed control at 250 g/ha stood at 90% in the experiment on Avena fatua (AVEFA) [1]; 60% in experiment [2]; 90% in the experiment on Lolium perenne (LOLPE) [3]; 100% in experiment [4]; 0% with Avena fatua (AVEFA) [5]; 20% in experiment [6]. For the same molecule, the pest or weed control at 250 g/ha amounted to 70% in the experiment with Lolium perenne (LOLPE) [7] and 90% in experiment [8].

In the case of `CCc1ccc(-c2ccc(Cl)c(F)c2F)cc1C1=C(O)CCCC1=O` [Compound T52], the pest or weed control at 250 g/ha amounted to 80% in the experiment with Avena fatua (AVEFA) [1]; 70% in experiment [2]; 100% with Lolium perenne (LOLPE) [3]; 100% in experiment [4]; 30% in the experiment on Avena fatua (AVEFA) [5]; 40% in experiment [6]. Moreover, the figures for the pest or weed control at 250 g/ha (in the experiment with Lolium perenne (LOLPE) [7]; in experiment [8]) were 90% and 100%, respectively.

Turning to `CCc1ccc(-c2ccc(Cl)cc2C)cc1C1=C(O)CCCC1=O` [Compound T48], the pest or weed control at 250 g/ha stood at 10% with Avena fatua (AVEFA) [1]; 20% in experiment [2]; 50% in the experiment with Lolium perenne (LOLPE) [3]; 100% in experiment [4]; 20% in the experiment with Avena fatua (AVEFA) [5]; 0% in experiment [6]. The pest or weed control at 250 g/ha in the experiment with Lolium perenne (LOLPE) [7] turned out to be 80%; in experiment [8] it was 90%.

With `CCc1ccc(-c2ccc(Cl)cc2Cl)cc1C1=C(O)C(C)(C)CC(C)(C)C1=O` [Compound T61], the pest or weed control at 250 g/ha in the experiment on Avena fatua (AVEFA) [1] worked out at 30%; in experiment [2], 10%; with Lolium perenne (LOLPE) [3], 40%; in experiment [4], 90%; in the experiment on Avena fatua (AVEFA) [5] it was 50%; in experiment [6], 20%. For the same molecule, the pest or weed control at 250 g/ha in the experiment on Lolium perenne (LOLPE) [7] was found to be 70%; in experiment [8], 90%.

Regarding `CCc1ccc(-c2ccc(Cl)c(OC)c2)cc1C1=C(O)C(C)(C)CC(C)(C)C1=O` [Compound T66], the pest or weed control at 250 g/ha in the experiment with Avena fatua (AVEFA) [1] was found to be 50%; in experiment [2], 30%; with Lolium perenne (LOLPE) [3], 30%; in experiment [4] it was 100%; in the experiment with Avena fatua (AVEFA) [5] it was 0%; in experiment [6], 10%. Moreover, the pest or weed control at 250 g/ha in the experiment on Lolium perenne (LOLPE) [7] is 30%; in experiment [8], 90%.

As for `CCc1ccc(-c2ccc(Cl)cc2Cl)cc1C1=C(O)CCCC1=O` [Compound T44], the pest or weed control at 250 g/ha with Avena fatua (AVEFA) [1] is 0%; in experiment [2], 30%; with Lolium perenne (LOLPE) [3], 80%; in experiment [4], 100%; in the experiment on Avena fatua (AVEFA) [5], 0%; in experiment [6] it was 0%. The pest or weed control at 250 g/ha in the experiment on Lolium perenne (LOLPE) [7] turned out to be 80%; in experiment [8], 90%.

Consider `CCc1ccc(-c2ccc(Cl)c(F)c2Cl)cc1C1=C(O)C(C)(C)CCC1=O` [Compound T15], for which the pest or weed control at 250 g/ha in the experiment with Avena fatua (AVEFA) [1] was 40%; in experiment [2], 0%; in the experiment on Lolium perenne (LOLPE) [3], 50%; in experiment [4], 100%; with Avena fatua (AVEFA) [5], 0%; in experiment [6] it was 0%. In addition, the pest or weed control at 250 g/ha turned out to be 90% with Lolium perenne (LOLPE) [7] and 100% in experiment [8].

For `CCc1ccc(-c2ccc(Cl)c(F)c2)cc1C1=C(O)CC(C)(C)CC1=O` [Compound T33], the pest or weed control at 250 g/ha with Avena fatua (AVEFA) [1] amounted to 80%; in experiment [2] it was 100%; with Lolium perenne (LOLPE) [3], 100%; in experiment [4] it was 100%; in the experiment with Avena fatua (AVEFA) [5] it was 20%; in experiment [6] it was 0%. Moreover, the pest or weed control at 250 g/ha (in the experiment on Lolium perenne (LOLPE) [7]; in experiment [8]) was 90% in each case.

On to `CCc1ccc(-c2c(F)cc(Cl)cc2F)cc1C1=C(O)CC(C)(C)CC1=O` [Compound T28], for which the pest or weed control at 250 g/ha in the experiment with Avena fatua (AVEFA) [1] is 50%; in experiment [2], 30%; in the experiment on Lolium perenne (LOLPE) [3] it was 100%; in experiment [4], 100%; in the experiment with Avena fatua (AVEFA) [5], 40%; in experiment [6], 20%. In addition, the pest or weed control at 250 g/ha in the experiment with Lolium perenne (LOLPE) [7] is 90%; in experiment [8], 100%.

For `CCc1ccc(-c2ccc(Cl)nc2)cc1C1=C(O)CC(C)(C)CC1=O` [Compound T27], the pest or weed control at 250 g/ha in the experiment on Avena fatua (AVEFA) [1] was 70%; in experiment [2] it was 90%; with Lolium perenne (LOLPE) [3] it was 80%; in experiment [4], 100%; with Avena fatua (AVEFA) [5], 0%; in experiment [6] it was 0%. In addition, the pest or weed control at 250 g/ha (in the experiment with Lolium perenne (LOLPE) [7]; in experiment [8]) was 0% in each case.
